IC50 data for four compounds are collected here from patent US7566712B2, “Biaryl piperazinyl-pyridine analogues” (Neurogen Corporation, priority 2003, dated 2009).

Molecules are shown by their SMILES. Some results are limits rather than exact numbers.

The assay deals with T1, human capsaicin receptor (Homo sapiens, UniProt Q8NER1).
T1 construct: pBK-CMV expression construct encoding the full length human capsaicin receptor; expressed in transfected cells
The experiment in a line: Calcium mobilization assay, determination of antagonist activity (Example 6). The following applies: Table II; IC50 determined as described in Example 6 (antagonist activity, calcium mobilization). The assay is classed as cell-based. The gist of the method:
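Antagonism measured as inhibition of capsaicin-evoked (final concentration = EC50, from an 8-point 1 nM–3 μM curve) Fluo-3 calcium signal in stable hVR1-HEK293 cells. Test compounds at 1–5 μM final, 0.5–6 h dark preincubation at room temperature. IC50 = concentration giving 50% reduction versus agonist-only response.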
A general note: A change in cytosolic calcium serves as a functional read-out for many receptors and channels.

T1 sequence (Q8NER1 whole entry): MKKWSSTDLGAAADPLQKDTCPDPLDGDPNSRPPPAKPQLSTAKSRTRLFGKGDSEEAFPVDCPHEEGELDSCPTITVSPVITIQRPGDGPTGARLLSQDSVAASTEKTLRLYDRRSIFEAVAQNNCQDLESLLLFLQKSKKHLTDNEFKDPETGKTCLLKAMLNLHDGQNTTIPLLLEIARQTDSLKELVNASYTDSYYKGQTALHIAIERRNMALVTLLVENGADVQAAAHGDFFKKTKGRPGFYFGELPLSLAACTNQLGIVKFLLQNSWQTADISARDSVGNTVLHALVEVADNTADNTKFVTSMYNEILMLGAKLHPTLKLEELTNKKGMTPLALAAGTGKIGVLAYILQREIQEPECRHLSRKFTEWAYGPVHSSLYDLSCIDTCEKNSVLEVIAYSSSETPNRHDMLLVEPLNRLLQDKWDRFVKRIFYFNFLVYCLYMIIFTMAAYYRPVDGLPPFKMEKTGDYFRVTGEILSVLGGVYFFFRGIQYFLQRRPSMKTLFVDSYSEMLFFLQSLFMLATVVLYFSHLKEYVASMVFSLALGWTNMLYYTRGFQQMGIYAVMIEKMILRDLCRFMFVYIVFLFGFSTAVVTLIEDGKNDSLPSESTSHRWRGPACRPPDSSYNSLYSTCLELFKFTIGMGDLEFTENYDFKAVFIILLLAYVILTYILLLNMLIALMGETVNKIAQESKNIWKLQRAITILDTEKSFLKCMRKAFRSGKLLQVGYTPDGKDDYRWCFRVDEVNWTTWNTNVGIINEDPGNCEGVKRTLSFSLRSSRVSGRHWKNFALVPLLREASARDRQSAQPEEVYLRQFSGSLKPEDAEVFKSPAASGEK

`CC1CCCN1c1nc(-c2ccc(F)cc2)cc(N2CCN(c3nc(Cl)ccc3Cl)C[C@H]2C)n1` (stereo partly shown) [Example 1011, 4-[4-(3,6-dichloropyridin-2-yl)-2-methylpiperazin-1-yl]-6-(4-fluorophenyi)-2-(2-methylpyrrolidin-1-yl)pyrimidine]: the IC50 (commonly the concentration at which inhibition is half-maximal) was ≤ 1 µM. The figure for `CNc1ccc(Cl)c(N2CCN(c3cc(-c4ccc(F)cc4)nc(N4CCCC4C)n3)[C@H](C)C2)n1` (stereo partly shown) [Example 1012, 5-chloro-6-{4-[6-(4-fiuorophenyl)-2-(2-methylpyrrolidin-1-yl)pyrimidin-4-yl]-3-methylpiperazin-1-yl}-N-methylpyridin-2-amine] is ≤ 1 µM; for `CC1CCCN1c1nc(-c2ccc(F)cc2)cc(N2CCN(c3ncncc3Cl)C[C@H]2C)n1` (stereo partly drawn) [Example 1013, 4-[(2R)-4-(5-chloropyrimidin-4-yl)-2-methylpiperazin-1-yl]-6-(4-fluorophenyl)-2-(2-methylpyrrolidin-1-yl)pyrimidine] it is ≤ 1 µM. For `Cc1cccnc1N1CCN(c2cc(-c3ccc(F)c(Cl)c3)nc(N(C)[C@@H](C)CO)n2)CC1` [Example 1016, (2S)-2-[{4-(3-chloro-4-fluorophenyl)-6-[4-(3-methylpyridin-2-yl)piperazin-1-yl]pyrimidin-2-yl}(methyl)amino]propan-1-ol], the IC50 was ≤ 1 µM.
